# Values of other authors in patent publication US10773008B2, “Medicated patch for preventing exit site infections during peritoneal dialysis” (Universiti Brunei Darussalam, priority 2016, dated 2020).
# Legend:
# [1] = topical mupirocin
# [2] = in vivo
# [3] = not given; remark: listed apart in the source
structure (smiles),measurement,setting,value
C/C(=C\C(=O)OCCCCCCCCC(=O)O)C[C@@H]1OC[C@H](C[C@@H]2O[C@H]2[C@@H](C)[C@H](C)O)[C@@H](O)[C@H]1O [mupirocin],bioavailability,[1],0.24%
same,PKa,,4.83
same,half-life,[2],20 to 40 min
same,log P,[3],2.45
